The values below come from US20040249122A1, “Cationic, amphipathic beta-sheet peptides and uses thereof” (priority 2003, published 2004).

Structures are written as SMILES. Values after ≈ are worked out from the molar mass of the structure shown. Where a SMILES comes first, the peptide text is derived from it. The star is where a group is joined. Octanoyl = CCCCCCCC(=O)*

Assay [1] concerns Escherichia coli (ATCC 25922). In kind it is cell-based. The following applies: ATCC 25922. Here is the method:
(§1) Antimicrobial and Hemolytic Assays. Antimicrobial susceptibility testing against Staphylococcus aureus (ATCC 29213), Escherichia coli (ATCC 25922), and Pseudomonas aeruginosa (ATCC 27853) was performed using a modification of the National Committee for Clinical Laboratory Standards microdilution broth assay (22). Mueller-Hinton broth (BBL) was used for diluting the peptide stock solution and for diluting the bacterial inoculum. The inoculum was prepared from mid-logarithmic phase cultures. […] The final concentration of peptide solution ranged-from 0.25 to 256 μg/mL in two-fold dilutions. The final concentration of bacteria in the wells was 5×10^5 CFU/mL. Peptides were tested in duplicate. In addition to the test peptide, three standard peptides and a non-treated growth control were included to validate the assay. The microtiter plates were incubated overnight at 37° C. and the absorbance was measured at 600 nm. […] After incubation at 37° C. for 30 min, the suspension was centrifuged at 10,000×g for 10 min and the absorbance at 400 nm was measured.

Assay [2] deals with Pseudomonas aeruginosa (ATCC 27853). It counts as cell-based. The following applies: ATCC 27853. The protocol:
as §1

Assay [3] concerns Staphylococcus aureus (ATCC 29213). It counts as cell-based. The following applies: ATCC 29213. Here is the method:
as §1

In assay [4] the test system is E. coli, S. aureus, and P. aeruginosa. In kind it is cell-based. The protocol: Antimicrobial and Hemolytic Assays. Antimicrobial susceptibility testing against Staphylococcus aureus (ATCC 29213), Escherichia coli (ATCC 25922), and Pseudomonas aeruginosa (ATCC 27853) was performed using a modification of the National Committee for Clinical Laboratory Standards microdilution broth assay (22). Mueller-Hinton broth (BBL) was used for diluting the peptide stock solution and for diluting the bacterial inoculum. The inoculum was prepared from mid-logarithmic phase cultures. Microtiter plate wells received aliquots-of 100 μL each of the inoculum and peptide dilution. The final concentration of peptide solution ranged-from 0.25 to 256 μg/mL in two-fold dilutions. The final concentration of bacteria in the wells was 5×10^5 CFU/mL. Peptides were tested in duplicate. In addition to the test peptide, three standard peptides and a non-treated growth control were included to validate the assay. The microtiter plates were incubated overnight at 37° C. and the absorbance was measured at 600 nm. […] Hemolysis at peptide concentrations of 500 μg/mL was determined using a 5% suspension of freshly drawn human erythrocytes, which had been washed twice in phosphate buffered saline. After incubation at 37° C. for 30 min, the suspension was centrifuged at 10,000×g for 10 min and the absorbance at 400 nm was measured. Complete hemolysis was determined by adding 0.2% Triton X-100 in place of the peptide.

The nature of assay [5]: Peptide-induced leakage from calcein-loaded LUV. Here is the method: Peptide-Induced Leakage from Calcein-Loaded LUV. The ability of the peptides to release calcein (MW 623) from LUV of varying lipid composition was compared. LUV were prepared as above, except that-the buffer consisted of 50 mM HEPES, 100 mM NaCl, 0.3 mM EDTA, 80 mM calcein, pH 7.4. Calcein-loaded vesicles were separated from free calcein by size-exclusion chromatography using a Sephadex G-50 column and calcein-free buffer. Calcein leakage was monitored using a Perkin-Elmer LS-500 luminescence spectrometer by measuring the time-dependent increase in fluorescence of calcein (excitation=490 nm, emission=520 nm). LUV containing 8 nmoles of lipid were added to 1.5 mL of buffer in a stirred cuvet at 25° C. An aliquot of peptide was added to achieve the desired lipid-to-peptide ratio (256 to 8). Complete leakage was determined by the addition of 20 μL of 10% Triton X-100. Each value represents at least nine different measurements using at least three different LUV preparations.

Consider `CC[C@H](C)[C@H](NC(=O)[C@H](C)NC(=O)CNC(=O)[C@H](CCCCN)NC(=O)[C@@H](NC(=O)[C@H](CCCCN)NC(=O)[C@@H](NC(=O)[C@H](C)NC(=O)CNC(=O)[C@H](CCCCN)NC(=O)[C@H](Cc1c[nH]c2ccccc12)NC(=O)[C@H](CCCCN)NC(=O)[C@@H](NC(=O)[C@H](C)NC(=O)CNC(=O)[C@H](CCCCN)NC(=O)[C@@H](NC(=O)[C@@H](N)CCCCN)[C@@H](C)CC)[C@@H](C)CC)[C@@H](C)CC)[C@@H](C)CC)C(N)=O` [1,3-Hex, K I K G A I K W K G A I K I K G A I-NH2] (H-KIKGAIKWKGAIKIKGAI-NH2; N-terminus assumed), for which the “MIC E. coli” value in assay [1] came to 8 µg/mL (≈ 4.16 µM). Further, in assay [2], the “MIC Pseud. aerug” value stood at 16 µg/mL (≈ 8.32 µM). The “MIC Staph. aureus” value in assay [3] came out at 32 µg/mL (≈ 16.6 µM). In addition, in assay [4], the “antimicrobial activity (in words)” value is listed as “appreciable antimicrobial activity”.
As for `CC(C)C[C@H](NC(=O)CNC(=O)[C@H](CCCCN)NC(=O)[C@H](C)NC(=O)[C@H](CC(C)C)NC(=O)[C@H](CCCCN)NC(=O)[C@H](C)NC(=O)[C@H](CC(C)C)NC(=O)CNC(=O)[C@H](CCCCN)NC(=O)[C@H](C)NC(=O)[C@H](Cc1c[nH]c2ccccc12)NC(=O)[C@H](CCCCN)NC(=O)[C@H](C)NC(=O)[C@H](CC(C)C)NC(=O)CNC(=O)[C@H](CCCCN)NC(=O)[C@H](C)NC(=O)[C@H](CC(C)C)NC(=O)[C@@H](N)CCCCN)C(=O)N[C@@H](C)C(N)=O` [1,4-Hept, KLAKGLAKWAKGLAKLAKGLA-NH2] (H-KLAKGLAKWAKGLAKLAKGLA-NH2; N-terminus assumed), the “MIC E. coli” value in assay [1] was determined as 8 µg/mL (≈ 3.75 µM). For the same compound, the “MIC Pseud. aerug” value in assay [2] amounted to 32 µg/mL (≈ 15 µM). Moreover, the “MIC Staph. aureus” value in assay [3] lay in the range of 8 to 16 µg/mL. Moreover, the “antimicrobial activity (in words)” value in assay [4] is listed as “relatively low MIC values”.
Consider `CC(C)C[C@H](NC(=O)[C@H](CCCCN)NC(=O)CNC(=O)[C@H](C)NC(=O)[C@H](CC(C)C)NC(=O)[C@H](CCCCN)NC(=O)[C@H](C)NC(=O)[C@H](CC(C)C)NC(=O)[C@H](CCCCN)NC(=O)CNC(=O)[C@H](C)NC(=O)[C@H](Cc1c[nH]c2ccccc12)NC(=O)[C@H](CCCCN)NC(=O)[C@H](C)NC(=O)[C@H](CC(C)C)NC(=O)[C@H](CCCCN)NC(=O)CNC(=O)[C@H](C)NC(=O)[C@H](CC(C)C)NC(=O)[C@@H](N)CCCCN)C(=O)N[C@@H](C)C(N)=O` [1,5-Hept, KLAGKLAKWAGKLAKLAGKLA-NH2] (H-KLAGKLAKWAGKLAKLAGKLA-NH2; N-terminus assumed), for which the “MIC E. coli” value in assay [1] is 8 µg/mL (≈ 3.75 µM). Further, the “MIC Pseud. aerug” value in assay [2] was found to be 16 µg/mL (≈ 7.49 µM). The “MIC Staph. aureus” value in assay [3] was found to be 4 µg/mL (≈ 1.87 µM). For the same compound, the “antimicrobial activity (in words)” value in assay [4] is “relatively low MIC values”.
Taken in the same sequence, the figures for `CC(C)C[C@H](NC(=O)CNC(=O)[C@H](C)NC(=O)[C@H](CC(C)C)NC(=O)[C@H](CCCCN)NC(=O)[C@H](C)NC(=O)[C@H](CCCCN)NC(=O)[C@H](CC(C)C)NC(=O)CNC(=O)[C@H](C)NC(=O)[C@H](Cc1c[nH]c2ccccc12)NC(=O)[C@H](CCCCN)NC(=O)[C@H](C)NC(=O)[C@H](CCCCN)NC(=O)[C@H](CC(C)C)NC(=O)CNC(=O)[C@H](C)NC(=O)[C@H](CC(C)C)NC(=O)[C@@H](N)CCCCN)C(=O)N[C@@H](CCCCN)C(=O)N[C@@H](C)C(N)=O` [1,6-Hept, KLAGLKAKWAGLKAKLAGLKA-NH2] (H-KLAGLKAKWAGLKAKLAGLKA-NH2; N-terminus assumed) were more than 256 µg/mL, more than 256 µg/mL, more than 256 µg/mL and “devoid of antimicrobial activity”.
Taken in the same sequence, the figures for `CC(C)C[C@H](NC(=O)CNC(=O)[C@H](C)NC(=O)[C@H](CC(C)C)NC(=O)[C@H](CCCCN)NC(=O)[C@H](CCCCN)NC(=O)[C@H](C)NC(=O)[C@H](CC(C)C)NC(=O)CNC(=O)[C@H](C)NC(=O)[C@H](Cc1c[nH]c2ccccc12)NC(=O)[C@H](CCCCN)NC(=O)[C@H](CCCCN)NC(=O)[C@H](C)NC(=O)[C@H](CC(C)C)NC(=O)CNC(=O)[C@H](C)NC(=O)[C@H](CC(C)C)NC(=O)[C@@H](N)CCCCN)C(=O)N[C@@H](C)C(=O)N[C@@H](CCCCN)C(N)=O` [1,7-Hept, KLAGLAKKWAGLAKKLAGLAK-NH2] (H-KLAGLAKKWAGLAKKLAGLAK-NH2; N-terminus assumed) were 8 µg/mL (≈ 3.75 µM), 16 µg/mL (≈ 7.49 µM), 16 µg/mL (≈ 7.49 µM) and “relatively low MIC values”.
Regarding `CC(C)C[C@H](NC(=O)[C@H](CCCCN)NC(=O)[C@H](CC(C)C)NC(=O)[C@H](CCCCN)NC(=O)[C@H](CC(C)C)NC(=O)[C@H](CCCCN)NC(=O)[C@H](Cc1c[nH]c2ccccc12)NC(=O)[C@H](CCCCN)NC(=O)[C@H](CC(C)C)NC(=O)[C@H](CCCCN)NC(=O)[C@H](CC(C)C)NC(=O)[C@H](CCCCN)NC(=O)[C@H](CC(C)C)NC(=O)[C@@H](N)CCCCN)C(N)=O` [KL-14, K L K L K L K W K L K L K L-NH2] (H-KLKLKLKWKLKLKL-NH2; N-terminus assumed), the “calcein leakage from LUV (in words)” value in assay [5] (LUVs from E. coli lipids) is “highly effective”; in assay [5] (POPC (PC) LUV), “quite lytic”. Further, the “MIC E. coli” value in assay [1] worked out at 32 µg/mL (≈ 18 µM). Also, the “MIC Pseud. aerug” value in assay [2] was found to be 16 µg/mL (≈ 8.99 µM). The “MIC Staph. aureus” value in assay [3] came to 16 µg/mL (≈ 8.99 µM). The compound further gave an MIC values in assay [4] of 4 to 16 µg/mL.
With `CCCCCCCC(=O)N[C@@H](CCCCN)C(=O)N[C@@H](CC(C)C)C(=O)N[C@@H](CCCCN)C(=O)N[C@@H](Cc1c[nH]c2ccccc12)C(=O)N[C@@H](CCCCN)C(=O)N[C@@H](CC(C)C)C(=O)N[C@@H](CCCCN)C(=O)N[C@@H](CC(C)C)C(=O)N[C@@H](CCCCN)C(=O)N[C@@H](CC(C)C)C(=O)N[C@@H](CCCCN)C(N)=O` [Oct-Beta-11, Oct- K L K W K L K L K L K-NH2] (Octanoyl-KLKWKLKLKLK-NH2), the “MIC E. coli” value in assay [1] worked out at 16 µg/mL (≈ 10.3 µM). Moreover, the “MIC Pseud. aerug” value in assay [2] is 8 µg/mL (≈ 5.16 µM). Also, in assay [3], the “MIC Staph. aureus” value was 4 µg/mL (≈ 2.58 µM). In assay [4], the “antimicrobial activity (in words)” value was “reasonable antimicrobial activity”.
Consider `CCCCCCCC(=O)N[C@@H](CCCCN)C(=O)N[C@@H](Cc1c[nH]c2ccccc12)C(=O)NCC(=O)N[C@@H](C)C(=O)N[C@@H](CCCCN)C(=O)N[C@H](C(N)=O)[C@@H](C)CC` [Oct-KIGAKI-6, Oct- K W G A K I-NH2] (Octanoyl-KWGAKI-NH2), for which, in assay [1], the “MIC E. coli” value was more than 256 µg/mL. Besides, the “MIC Pseud. aerug” value in assay [2] is more than 256 µg/mL. Besides, the “MIC Staph. aureus” value in assay [3] is more than 256 µg/mL. In addition, the “antimicrobial activity (in words)” value in assay [4] is given as “no activity”.
